# Laboratory results taken from patent publication US10131652B2, “Pyrimidinyloxy benzene derivatives as herbicides” (E. I. DU PONT DE NEMOURS AND COMPANY, priority 2014, dated 2018).
# Read-outs that look alike come from different tables or passages of the source.
# Columns and labels:
# Format in all cases: in vivo
# [1] = test system: small-flower umbrella sedge (Cyperus difformis); assay: Test C flooded paddy test plant response; conditions: Cyperus difformis; Flood, 250 g ai/ha; scale of 0 to 100 where 0 is no effect and 100 is complete control; 13 to 15 days; read-out: Sedge, Umbrella plant response rating
# Outline: (§1)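 2-leaf plants; flood 3 cm, cpd into paddy water; greenhouse 13–15 d; visual score vs untreated, 0 = no effect, 100 = complete control; dash = no result.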
# [2] = test system: barnyardgrass (Echinochloa crus-galli); assay: Test C flooded paddy test plant response; conditions: Echinochloa crus-galli; Flood, 250 g ai/ha; scale of 0 to 100 where 0 is no effect and 100 is complete control; 13 to 15 days; read-out: Barnyardgrass plant response rating
# Outline: as §1
# [3] = test system: rice (Oryza sativa); assay: Test C flooded paddy test plant response; conditions: Oryza sativa; Flood, 250 g ai/ha; scale of 0 to 100 where 0 is no effect and 100 is complete control; 13 to 15 days; read-out: Rice plant response rating
# Outline: as §1
# [4] = test system: ducksalad (Heteranthera limosa); assay: Test C flooded paddy test plant response; conditions: Heteranthera limosa; Flood, 250 g ai/ha; scale of 0 to 100 where 0 is no effect and 100 is complete control; 13 to 15 days; read-out: Ducksalad plant response rating
# Outline: as §1
# [5] = test system: corn (Zea mays); assay: Test B pre-/postemergence plant response; conditions: Zea mays, post-emergence, 240 h
# Outline: (§2)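 Steps: plant seeds in loam soil–sand mix; spray soil preemergence, and in parallel spray 2–10 cm one- to two-leaf plants postemergence; hold ~10 days in greenhouse; visually rate injury against untreated controls (0 = no effect, 100 = complete control).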
# [6] = test system: barnyardgrass (Echinochloa crus-galli); assay: Test B pre-/postemergence plant response; conditions: Echinochloa crus-galli, 240 h, read-out: Plant response rating, Barnyardgrass; for pest or weed control at 125 g/ha: 125 g ai/ha; for pest or weed control at 500 g/ha: 500 g ai/ha
# Outline: as §2
# [7] = test system: wheat (Triticum aestivum); assay: Test B pre-/postemergence plant response; conditions: Triticum aestivum, post-emergence, 240 h, read-out: Plant response rating, Wheat
# Outline: as §2
# [8] = test system: pigweed (Amaranthus retroflexus); assay: Test B pre-/postemergence plant response; conditions: Amaranthus retroflexus, 240 h, read-out: Plant response rating, Pigweed; for pest or weed control at 125 g/ha: 125 g ai/ha; for pest or weed control at 500 g/ha: 500 g ai/ha
# Outline: as §2
# [9] = test system: giant foxtail (Setaria faberii); assay: Test B pre-/postemergence plant response; conditions: Setaria faberi, 240 h, read-out: Plant response rating, Foxtail, Giant; for pest or weed control at 125 g/ha: 125 g ai/ha; for pest or weed control at 500 g/ha: 500 g ai/ha
# Outline: as §2
# [10] = test system: winter wheat (Triticum aestivum); assay: Test D pre-/postemergence plant response; conditions: Triticum aestivum; for plant injury at 16 g/ha: 16 g ai/ha; for plant injury at 31 g/ha: 31 g ai/ha; for plant injury at 62 g/ha: 62 g ai/ha; for plant injury at 125 g/ha: 125 g ai/ha
# Text: (§3) Seeds of plant species selected from blackgrass (Alopecurus myosuroides), Italian ryegrass (Lolium multiflorum), winter wheat (Triticum aestivum), galium (catchweed bedstraw, Galium aparine), corn (Zea mays), large (Lg) crabgrass (Digitaria sanguinalis), giant foxtail (Setaria faberii), johnsongrass (Sorghum halepense), lambsquarters (Chenopodium album), morningglory (Ipomoea coccinea), yellow nutsedge (Cyperus esculentus), pigweed (Amaranthus retroflexus), ragweed (common ragweed, Ambrosia elatior), soybean (Glycine max), bamyardgrass (Echinochloa crus-galli), oilseed rape (Brassica napus), waterhemp (common waterhemp, Amaranthus rudis), and velvetleaf (Abutilon theophrasti) were planted into a blend of loam soil and sand and treated preemergence with test chemicals formulated in a non-phytotoxic solvent mixture which included a surfactant. At the same time, plants selected from these crop and weed species and also kochia (Kochia scoparia), wild oat (Avena fatua), and chickweed (common chickweed, Stellaria media) were planted in pots containing Redi-Earth® planting medium (Scotts Company, 14111 Scottslawn Road, Marysville, Ohio 43041) comprising spaghnum peat moss, vermiculite, wetting agent and starter nutrients and treated with postemergence applications of test chemicals formulated in the same manner. Plants ranged in height from 2 to 18 cm (1- to 4-leaf stage) for postemergence treatments. Treated plants and controls were maintained in a greenhouse for 13 to 15 days, after which time all species were compared to controls and visually evaluated. Plant response ratings, summarized in Table D, are based on a scale of 0 to 100 where 0 is no effect and 100 is complete control. A dash (-) response means no test result.
# [11] = test system: morningglory (Ipomoea coccinea); assay: Test D pre-/postemergence plant response; conditions: Ipomoea; for pest or weed control at 16 g/ha: 16 g ai/ha; for pest or weed control at 31 g/ha: 31 g ai/ha; for pest or weed control at 62 g/ha: 62 g ai/ha; for pest or weed control at 125 g/ha: 125 g ai/ha
# Text: as §3
# [12] = test system: johnsongrass (Sorghum halepense); assay: Test D pre-/postemergence plant response; conditions: Sorghum halepense, post-emergence, Postemergence, scale 0 to 100 (0 no effect, 100 complete control), read-out: Johnsongrass plant response rating
# Text: as §3
# [13] = 125 g ai/ha, postemergence, 0 to 100 scale, 0 no effect, 100 complete control
# [14] = Postemergence, 500 g ai/ha, 0 to 100 scale (0 no effect, 100 complete control)
# [15] = post-emergence, postemergence, 0 to 100 scale, 0 no effect, 100 complete control
# [16] = post-emergence, Postemergence, 0 to 100 scale (0 no effect, 100 complete control)
# [17] = pre-emergence, Preemergence, 0 to 100 scale where 0 is no effect and 100 is complete control
# [18] = post-emergence, Postemergence, scale 0 to 100 (0 no effect, 100 complete control), read-out: Wheat plant response rating
# [19] = post-emergence, Postemergence, scale 0 to 100, 0 no effect, 100 complete control, read-out: Plant response rating, Wheat
# [20] = pre-emergence, Preemergence, scale 0 to 100 (0 no effect, 100 complete control), read-out: Plant response rating, Wheat
# [21] = post-emergence, Postemergence, scale 0 to 100 (0 no effect, 100 complete control), read-out: Morningglory plant response rating
# [22] = post-emergence, Postemergence, scale 0 to 100, 0 no effect, 100 complete control, read-out: Plant response rating, Morningglory
# [23] = pre-emergence, Preemergence, scale 0 to 100 (0 no effect, 100 complete control), read-out: Plant response rating, Morningglory
structure (smiles),measurement,setting,value
"FC(F)c1cc(-c2ccccc2Oc2ncc(Cl)cn2)on1 [Compound 53, 5-chloro-2-[2-[3-(difluoromethyl)-5-isoxazolyl]phenoxy]pyrimidine]",pest or weed control at 250 g/ha,[1],75%
same,pest or weed control at 250 g/ha,[2],20%
same,plant injury at 250 g/ha,[3],20%
same,pest or weed control at 250 g/ha,[4],80%
same,"Corn plant response rating (crop injury, 0 = no effect, 100 = complete kill) at 125 g/ha",[5]; [13],10%
same,"Corn plant response rating (crop injury, 0 = no effect, 100 = complete kill) at 500 g/ha",[5]; [14],70%
same,pest or weed control at 125 g/ha,[6]; [15],100%
same,pest or weed control at 500 g/ha,[6]; [16],100%
same,pest or weed control at 125 g/ha,[6]; [17],90%
same,pest or weed control at 500 g/ha,[6]; [17],100%
same,plant injury at 125 g/ha,[7]; [13],40%
same,plant injury at 500 g/ha,[7]; [14],80%
same,pest or weed control at 125 g/ha,[8]; [15],100%
same,pest or weed control at 500 g/ha,[8]; [16],100%
same,pest or weed control at 125 g/ha,[8]; [17],100%
same,pest or weed control at 500 g/ha,[8]; [17],100%
same,pest or weed control at 125 g/ha,[9]; [15],100%
same,pest or weed control at 500 g/ha,[9]; [16],100%
same,pest or weed control at 125 g/ha,[9]; [17],90%
same,pest or weed control at 500 g/ha,[9]; [17],100%
same,plant injury at 16 g/ha,[10]; [18],0%
same,plant injury at 31 g/ha,[10]; [18],0%
same,plant injury at 62 g/ha,[10]; [19],0%
same,plant injury at 125 g/ha,[10]; [19],0%
same,plant injury at 125 g/ha,"[10]; pre-emergence, Preemergence, read-out: Plant response rating (scale 0 to 100), Wheat",5%
same,plant injury at 16 g/ha,[10]; [20],0%
same,plant injury at 31 g/ha,[10]; [20],0%
same,plant injury at 62 g/ha,[10]; [20],0%
same,pest or weed control at 16 g/ha,[11]; [21],50%
same,pest or weed control at 31 g/ha,[11]; [21],80%
same,pest or weed control at 62 g/ha,[11]; [22],85%
same,pest or weed control at 125 g/ha,[11]; [22],55%
same,pest or weed control at 125 g/ha,"[11]; pre-emergence, Preemergence, read-out: Plant response rating (scale 0 to 100), Morningglory",40%
same,pest or weed control at 16 g/ha,[11]; [23],0%
same,pest or weed control at 31 g/ha,[11]; [23],0%
same,pest or weed control at 62 g/ha,[11]; [23],45%
same,pest or weed control at 16 g/ha,[12]; 16 g ai/ha,0%
same,pest or weed control at 31 g/ha,[12]; 31 g ai/ha,0%
